What all share (assay): DTP human tumour cell line panel, 48 h
The test system of assay [1] is SK-MEL-5 melanoma.
The subject of assay [2] is A498 renal.
Assay [3] concerns OVCAR-3 ovarian.
The subject of assay [4] is SF-539 CNS.
Assay [5] deals with SNB-19 CNS.
The test system of assay [6] is SK-MEL-28 melanoma.
Assay [7] concerns CAKI-1 renal.
Assay [8] relates to SF-268 CNS.
For assay [9], the system named is SN12C renal.
Assay [10] has as its system SR leukemia.

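Grown in 96-well plates, cells were treated for 48 hours with each compound at five concentrations. Insufficient inhibition: endpoint recorded as highest concentration tested. The concentration for 50% growth inhibition is given as GI50. TGI: total growth inhibition.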

For the compound `O=C(O)c1ccc(CI)cc1`, the TGI in assay [1] was 31.3 µM; in [2], 35.3 µM; in [3], 23.3 µM; in assay [4], 32.1 µM; in assay [5], 31.9 µM; in assay [6] it was 31.9 µM. Besides, the TGI in assay [7] stood at 27.6 µM; in assay [8], 39.8 µM; in assay [9], 34.7 µM; in [10] it was 59.1 µM.

Consider `C=CCn1c(C)nc2ccc(Nc3nc(Nc4ccc(F)cc4)nc4ccccc34)cc21`, for which the GI50 was 1.36 µM in assay [1]; 4.36 µM in [2]; 5.04 µM in [3]; 12.3 µM in assay [4]; 9 µM in assay [5]; 1.65 µM in assay [6]. Besides, the GI50 in assay [7] was 6.86 µM; in assay [8], 8.69 µM; in assay [9], 2.78 µM; in assay [10] it was 2.26 µM. The TGI amounted to 2.64 µM in assay [1]; 24.1 µM in assay [2]; 17.8 µM in assay [3]; 25.7 µM in assay [4]; 23.8 µM in assay [5]; 3.13 µM in assay [6]. The TGI in assay [7] came out at 27.5 µM; in [8] it was 27.8 µM; in assay [9], 15.1 µM; in assay [10] it was 5.93 µM.

For the compound `CS(=O)(=O)CCNCc1cc(-c2cc3c(Nc4ccc(OCc5cccc(F)c5)c(Cl)c4)ncnc3s2)cs1`, the GI50 in [1] is 7.09 µM; in [2], 2.27 µM; in assay [3], 6.82 µM; in assay [4], 9.92 µM; in assay [5], 24.6 µM; in [6], 12.5 µM. Also, the GI50 in assay [7] is 4.79 µM; in [8], 11.3 µM; in assay [9] it was 15.3 µM; in assay [10] it was 7.39 µM. The TGI in [1], in assay [2], in [3], in assay [4], in assay [5] and in [6] was above 25 µM each time. The TGI in assay [7], in [8], in [9] and in assay [10] was above 25 µM throughout.

For the compound `CCC(O)c1ccc(Br)cc1NC(=O)c1cccc(Cl)c1` (stereo not given), the GI50 in [1] is 14.5 µM; in [2] it was 16.3 µM; in assay [3] it was 20.3 µM; in [4] it was 31.8 µM; in [5] it was 37.4 µM; in assay [6], 23.9 µM. Besides, the GI50 in assay [7] is 10.2 µM; in assay [8], 26.2 µM; in [9] it was 24.4 µM; in [10], 24 µM. Further, the TGI in assay [1] is 28.2 µM; in assay [2], 54 µM; in assay [3], 71.1 µM; in assay [4] it was above 100 µM; in assay [5], above 100 µM; in assay [6], 64.8 µM. In addition, the TGI in [7] was 51.4 µM; in assay [8], 93.2 µM; in assay [9], above 100 µM; in [10] it was 70.5 µM.

As for `CC1/C=C/[C@@]2(C)CCC(C(C)(C)O)C2C(O)C[C@](C)(O)/C=C/C1` (stereo not given in full), the TGI in assay [1], in assay [2], in assay [3], in [4], in assay [5] and in [6] was above 100 µM each time. For the same compound, the TGI in assay [7], in assay [8], in assay [9] and in assay [10] was above 100 µM each time.

`CCNc1cc(-c2cccc(OC(F)(F)F)c2)nc2ccc(N3CCCC3)cc12`: the GI50 is 1.51 µM in assay [1]; 1.07 µM in assay [2]; 1.56 µM in assay [3]; 1.73 µM in assay [4]; 3.12 µM in [5]; 1.71 µM in assay [6]. For the same compound, the GI50 in assay [7] was 1.81 µM; in [8], 1.79 µM; in assay [9] it was 1.7 µM; in [10], 1.57 µM. For the same compound, the TGI in assay [1] was 2.84 µM; in assay [2] it was 2.76 µM; in [3], 3.14 µM; in [4], 3.36 µM; in assay [5], 10.9 µM; in assay [6], 3.74 µM. Also, the TGI was 4.9 µM in [7], 3.79 µM in [8], 3.97 µM in assay [9] and 5 µM in [10].

As for `O=S(=O)(NCCNc1nccc(-c2c(-c3ccc(F)c(O)c3)nc3sccn23)n1)c1ccc(F)cc1`, the GI50 in assay [1] is 1.52 µM; in [2], 5.72 µM; in assay [3], 4.09 µM; in assay [4], 4.54 µM; in assay [5], 4.26 µM; in assay [6], 0.429 µM. Also, the GI50 in [7] was 4.02 µM; in assay [8] it was 4.71 µM; in [9] it was 2.83 µM; in [10] it was 1.34 µM. Moreover, the TGI in assay [1] was 2.98 µM; in [2], 18.2 µM; in [3], 59.5 µM; in assay [4] it was 25.3 µM; in assay [5], above 100 µM; in assay [6] it was 21.9 µM. In addition, the TGI is 31.6 µM in [7], above 100 µM in assay [8], 71.5 µM in assay [9] and above 100 µM in assay [10].

In the case of `Cn1c(C(=O)c2ccncc2)cc2ccccc21`, the GI50 was 37.5 µM in assay [1]; 26.2 µM in [2]; 49.7 µM in assay [3]; 87.5 µM in [4]; above 100 µM in [5]; above 100 µM in assay [6]. In addition, the GI50 was 72.9 µM in [7], 96.7 µM in assay [8], above 100 µM in [9] and 63.1 µM in [10]. For the same compound, the TGI in assay [1], in assay [2], in assay [3], in assay [4], in assay [5] and in [6] was above 100 µM each time. Besides, the TGI in assay [7], in [8], in [9] and in assay [10] was above 100 µM in each case.
